Consider five compounds from ChEMBL document CHEMBL3137667, “[Drug-induced liver injury; fourteenth updated edition of the bibliographic database of liver injuries and related drugs]” (Gastroenterol Clin Biol, 2004).

The conditions of data set [1]: human, serum, 4383 h.
For data set [2] the following is noted: human.
The conditions of data set [3]: human. This is another data set of the same source.
For data set [4] the following is noted: human. The source holds these as a separate data set.
A short description of data set [5]: Highest frequency of moderate liver toxicity observed during clinical trials, expressed as a percentage. [column '% BIOL' in source]. The conditions noted are these: human.
For data set [6] the following is noted: human. This is another data set of the same source.
The conditions of data set [7]: human. The source holds these as a separate data set.
The conditions of data set [8]: human, serum.
The conditions of data set [9]: human, serum. This is another data set of the same source.
The conditions of data set [10]: human. This is another data set of the same source.
The nature of data set [11]: Highest frequency of acute liver toxicity observed during clinical trials, expressed as a percentage. [column '% AIGUE' in source]. The conditions noted are these: human.
The conditions of data set [12]: human. This is another data set of the same source.
The conditions of data set [13]: human. The source holds these as a separate data set.
The conditions of data set [14]: human. This is another data set of the same source.
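Throughout, for Hepatotoxicity (association with vascular disease): count of indexed literature references reporting vascular liver injury in humans, e.g. peliosis hepatitis, hepatic veno-occlusive disease or Budd-Chiari syndrome.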
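Throughout, for Hepatotoxicity (benign tumour): value is a count of indexed literature references citing a benign tumour confirmed by histopathology.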
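Throughout, for Hepatotoxicity (choleostasis): human cholestatic liver injury, shown by histopathology or by peak ALT or AST elevation over alkaline phosphatase ratio below 2, value counts indexed literature reports.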
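Throughout, for Hepatotoxicity (chronic liver disease): chronic liver injury confirmed by histopathology or persistently raised serum aminotransferase activity beyond 6 months, value given as the count of indexed literature references.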
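Throughout, for Hepatotoxicity (cirrhosis): value is a count of indexed literature references reporting cirrhosis confirmed by histopathology.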
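Throughout, for Hepatotoxicity (cytolytic): human cytolytic liver injury, shown by histopathology or by a ratio above 5 of peak ALT or AST elevation to alkaline phosphatase elevation, value counts indexed references.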
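Throughout, for Hepatotoxicity (granulomatous hepatitis): value is a count of indexed literature references reporting granulomatous liver disease confirmed by histopathology.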
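Throughout, for Hepatotoxicity (malignant tumour): malignant tumour confirmed by histopathology, value gives the count of indexed literature references reporting it.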
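Throughout, for Hepatotoxicity (severe hepatitis): human clinical data: severe hepatitis, meaning potentially life-threatening liver failure or clinically observed cases, the value counts how many indexed literature references report it.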
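Throughout, for Hepatotoxicity (steatosis): steatosis confirmed by histopathology, value is the count of indexed references.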

On to BEMIPARIN SODIUM, for which, in data set [1], the “Hepatotoxicity (chronic liver disease)” value is 0. Further, the “Hepatotoxicity (association with vascular disease)” value in data set [2] is 0. Moreover, the “Hepatotoxicity (cytolytic)” value in data set [3] worked out at 0. The “Hepatotoxicity (benign tumour)” value in [4] was determined as 0. In addition, the “Hepatotoxicity (moderate)” value in data set [5] was found to be 0%; in [8], 1. The “Hepatotoxicity (severe hepatitis)” value in [6] is listed as 0. Also, in data set [7], the “Hepatotoxicity (malignant tumour)” value came out at 0. In addition, the “Hepatotoxicity (acute)” value is 0 in [9] and 0% in [11]. Moreover, the “Hepatotoxicity (steatosis)” value in data set [10] came out at 0. Besides, the “Hepatotoxicity (choleostasis)” value in data set [12] is given as 0. The “Hepatotoxicity (cirrhosis)” value in [13] came out at 0. For the same compound, the “Hepatotoxicity (granulomatous hepatitis)” value in [14] is given as 0.

For the compound `CCc1[nH]c(=O)[nH]c1C(=O)c1ccncc1` [PIROXIMONE], the “Hepatotoxicity (chronic liver disease)” value in data set [1] is given as 0. In [2], the “Hepatotoxicity (association with vascular disease)” value was 0. Further, the “Hepatotoxicity (cytolytic)” value in data set [3] came out at 0. The “Hepatotoxicity (benign tumour)” value in data set [4] is on record as 0. The “Hepatotoxicity (moderate)” value in data set [5] amounted to 0%; in data set [8] it was 0. Further, the “Hepatotoxicity (severe hepatitis)” value in [6] is 0. The “Hepatotoxicity (malignant tumour)” value in [7] came to 0. In addition, the “Hepatotoxicity (acute)” value in [9] stood at 1; in data set [11], 0%. Further, the “Hepatotoxicity (steatosis)” value in data set [10] was 0. In [12], the “Hepatotoxicity (choleostasis)” value was determined as 0. In data set [13], the “Hepatotoxicity (cirrhosis)” value came out at 0. Moreover, the “Hepatotoxicity (granulomatous hepatitis)” value in [14] amounted to 0.

As for `O=P1(NCCCl)OCCCN1CCCl` (stereo not given) [IFOSFAMIDE], in [1], the “Hepatotoxicity (chronic liver disease)” value was 0. In data set [2], the “Hepatotoxicity (association with vascular disease)” value stood at 0. Also, the “Hepatotoxicity (cytolytic)” value in [3] is 2. In addition, in data set [4], the “Hepatotoxicity (benign tumour)” value was found to be 0. Further, the “Hepatotoxicity (moderate)” value in data set [5] is 3.8%; in [8], 3. In addition, the “Hepatotoxicity (severe hepatitis)” value in [6] is given as 1. The “Hepatotoxicity (malignant tumour)” value in [7] stood at 0. Besides, the “Hepatotoxicity (acute)” value turned out to be 2 in [9] and 6% in data set [11]. The “Hepatotoxicity (steatosis)” value in [10] is reported as 0. Besides, the “Hepatotoxicity (choleostasis)” value in data set [12] came out at 0. The “Hepatotoxicity (cirrhosis)” value in [13] was 0. For the same compound, in [14], the “Hepatotoxicity (granulomatous hepatitis)” value was 0.

As for `CNC1(c2ccccc2Cl)CCCCC1=O` (stereo not given) [KETAMINE], in data set [1], the “Hepatotoxicity (chronic liver disease)” value was 0. Moreover, the “Hepatotoxicity (association with vascular disease)” value in data set [2] is 0. In data set [3], the “Hepatotoxicity (cytolytic)” value is 0. Also, the “Hepatotoxicity (benign tumour)” value in [4] is given as 0. For the same compound, the “Hepatotoxicity (moderate)” value in data set [5] was determined as 23.5%; in data set [8], 2. Besides, in [6], the “Hepatotoxicity (severe hepatitis)” value came out at 0. In data set [7], the “Hepatotoxicity (malignant tumour)” value is listed as 0. Besides, the “Hepatotoxicity (acute)” value in data set [9] came to 0; in [11] it was 0%. Also, in data set [10], the “Hepatotoxicity (steatosis)” value was 0. Besides, the “Hepatotoxicity (choleostasis)” value in data set [12] was determined as 0. The “Hepatotoxicity (cirrhosis)” value in data set [13] is listed as 0. Further, the “Hepatotoxicity (granulomatous hepatitis)” value in [14] was determined as 0.

In the case of `NCCCC(N)(C(=O)O)C(F)F` (stereo not given) [EFLORNITHINE], in [1], the “Hepatotoxicity (chronic liver disease)” value is on record as 0. Also, in data set [2], the “Hepatotoxicity (association with vascular disease)” value is 0. Besides, the “Hepatotoxicity (cytolytic)” value in [3] is on record as 0. Moreover, in data set [4], the “Hepatotoxicity (benign tumour)” value was determined as 0. Further, the “Hepatotoxicity (moderate)” value is 0% in data set [5] and 1 in data set [8]. Besides, the “Hepatotoxicity (severe hepatitis)” value in [6] is listed as 0. For the same compound, the “Hepatotoxicity (malignant tumour)” value in data set [7] was found to be 0. Moreover, the “Hepatotoxicity (acute)” value in [9] was found to be 0; in data set [11], 0%. Moreover, in data set [10], the “Hepatotoxicity (steatosis)” value came to 0. Further, the “Hepatotoxicity (choleostasis)” value in data set [12] is given as 0. The “Hepatotoxicity (cirrhosis)” value in [13] is 0. For the same compound, the “Hepatotoxicity (granulomatous hepatitis)” value in data set [14] is listed as 0.
